Data taken from ChEMBL document CHEMBL5226282, “TLR2 Agonistic Small Molecules: Detailed Structure-Activity Relationship, Applications, and Future Prospects” (J Med Chem, 2021).
*1 amine or outer side, *2 acyl side, *3 side chain or, on linkers, in order; H or OH if unused. Where a SMILES comes first, the peptide text is derived from it. [ ]: non-standard residue; d: D form. The star is where a group is joined. X1 = CCCCCCCCCCCCCCCC(=O)OCC(CCCC(N[*:1])C(=O)[*:2])OC(=O)CCCCCCCCCCCCCCC; X2 = CCCCCCCCCCCCCCCC(=O)OCC(C*)OC(=O)CCCCCCCCCCCCCCC; Palmitoyl = CCCCCCCCCCCCCCCC(=O)*

Tests used:
Toll-like receptor 2 [1] = target: T1, Toll-like receptor 2 (Homo sapiens, UniProt O60603); assay: Agonist activity at TLR2 (unknown origin)
Toll-like receptor 2 [2] = target: T1, Toll-like receptor 2; assay: Binding affinity to TLR2 (unknown origin)
Toll-like receptor 2 [3] = target: T1, Toll-like receptor 2; assay: Agonist activity at human TLR2 transfected in HEK293 cells relative to control; assay type: cell-based
Toll-like receptor 2 [4] = target: T1, Toll-like receptor 2; assay: Agonist activity at human TLR2 transfected in HEK293 cells; assay type: cell-based
Toll-like receptor 1/2 [5] = target: T2, Toll-like receptor 1/2 (Homo sapiens, UniProt O60603+Q15399); assay: Agonist activity at TLR2/TLR1 (unknown origin); assay type: protein-complex assay
TLR2/TLR6 (Homo sapiens) = TLR2/TLR6 (Homo sapiens) (UniProt O60603+Q9Y2C9); assay: Agonist activity at TLR2/TLR6 (unknown origin) assessed as induction of IL-8 production relative to control; assay type: protein-complex assay
Toll-like receptor 1/2 [6] = target: T2, Toll-like receptor 1/2; assay: Agonist activity at TLR2/TLR1 (unknown origin) assessed as induction of IL-8 production relative to control; assay type: protein-complex assay; conditions: filed as agonist

T1 sequence (O60603 whole entry): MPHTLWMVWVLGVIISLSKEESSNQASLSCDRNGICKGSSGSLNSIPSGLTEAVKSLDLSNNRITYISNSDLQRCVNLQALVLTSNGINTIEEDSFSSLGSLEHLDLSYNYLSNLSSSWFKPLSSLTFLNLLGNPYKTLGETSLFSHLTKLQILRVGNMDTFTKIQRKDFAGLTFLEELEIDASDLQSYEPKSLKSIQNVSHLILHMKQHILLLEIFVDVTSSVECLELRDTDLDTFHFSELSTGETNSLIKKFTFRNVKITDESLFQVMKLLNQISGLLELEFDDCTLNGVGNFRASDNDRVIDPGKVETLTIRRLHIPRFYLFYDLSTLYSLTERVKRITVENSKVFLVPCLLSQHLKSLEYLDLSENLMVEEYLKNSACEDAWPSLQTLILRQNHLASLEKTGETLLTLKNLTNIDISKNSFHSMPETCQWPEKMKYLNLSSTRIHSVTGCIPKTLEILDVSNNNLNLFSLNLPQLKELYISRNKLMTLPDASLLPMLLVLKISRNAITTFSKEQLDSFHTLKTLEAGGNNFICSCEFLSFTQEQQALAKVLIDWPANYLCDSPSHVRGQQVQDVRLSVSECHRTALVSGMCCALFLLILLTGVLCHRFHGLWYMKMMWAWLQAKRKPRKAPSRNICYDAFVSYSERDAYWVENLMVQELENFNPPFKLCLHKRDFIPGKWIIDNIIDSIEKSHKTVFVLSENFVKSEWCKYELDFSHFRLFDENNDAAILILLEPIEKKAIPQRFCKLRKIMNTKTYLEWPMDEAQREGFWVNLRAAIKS
T2 sequence (O60603 whole entry): as above
T2 sequence (Q15399 whole entry): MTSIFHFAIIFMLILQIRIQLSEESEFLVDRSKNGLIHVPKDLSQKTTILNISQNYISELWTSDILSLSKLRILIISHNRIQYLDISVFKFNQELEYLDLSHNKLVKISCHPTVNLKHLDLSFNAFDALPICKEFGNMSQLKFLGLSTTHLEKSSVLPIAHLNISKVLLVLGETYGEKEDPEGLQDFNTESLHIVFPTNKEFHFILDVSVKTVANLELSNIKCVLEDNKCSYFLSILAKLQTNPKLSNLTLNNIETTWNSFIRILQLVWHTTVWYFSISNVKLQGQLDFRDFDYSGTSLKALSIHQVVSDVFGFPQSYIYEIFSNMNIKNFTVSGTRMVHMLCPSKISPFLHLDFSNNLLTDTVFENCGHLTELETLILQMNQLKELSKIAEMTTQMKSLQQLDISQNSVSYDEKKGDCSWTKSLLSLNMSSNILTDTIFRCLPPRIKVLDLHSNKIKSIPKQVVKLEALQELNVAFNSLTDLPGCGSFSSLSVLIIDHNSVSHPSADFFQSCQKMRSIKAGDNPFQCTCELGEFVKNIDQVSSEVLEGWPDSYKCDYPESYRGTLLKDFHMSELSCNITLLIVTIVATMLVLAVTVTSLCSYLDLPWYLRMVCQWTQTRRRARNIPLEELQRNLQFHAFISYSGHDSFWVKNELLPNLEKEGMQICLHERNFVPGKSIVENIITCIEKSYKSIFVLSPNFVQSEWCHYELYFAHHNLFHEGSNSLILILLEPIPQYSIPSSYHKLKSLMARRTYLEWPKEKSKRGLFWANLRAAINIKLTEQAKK

| SMILES | EC50 (Toll-like receptor 2 [3]) | EC50 (Toll-like receptor 2 [4]) | also measured |
| --- | --- | --- | --- |
| CCCCCCCCCCCCCCCC(=O)OC[C@H](CSC[C@H](NC(=O)COCC(=O)NCCCOCCOCCOCCCNC(C)=O)C(=O)NCC(=O)N[C@H](CO)C(=O)COCC(=O)NCCCOCCOCCOCCCN)OC(=O)CCCCCCCCCCCCCCC |  |  | EC50 (Toll-like receptor 2 [1]): 20 nM; Ki (Toll-like receptor 2 [2]): 91 nM |
| CCCCCCCCCCCCOC[C@H](CSC[C@@H](N)C(=O)NCCOCCOCCOCCP(=O)(O)O)OCCCCCCCCCCCC | 550 nM | 550 nM |  |
| CCCCCCCCNC(=O)OC[C@H](CSC[C@@H](N)C(=O)NCCOCCOCCOCCP(=O)(O)O)OC(=O)NCCCCCCCC | 7030 nM | 7030 nM |  |
| CNc1ccc([N+](=O)[O-])cc1-n1cnc(-c2ccc([N+](=O)[O-])cc2)c1 |  |  | EC50 (Toll-like receptor 1/2 [5]): 2510 nM |
| CCCCCCCCCCNC(=O)OC[C@H](CSC[C@@H](NC(C)=O)C(=O)NCCOCCOCCOCCP(=O)(O)O)OC(=O)NCCCCCCCCCC | 830 nM | 830 nM |  |
| CCCCCCCCCCCCCCCC(=O)N[C@H](CSC[C@@H](COC(=O)CCCCCCCCCCC)OC(=O)CCCCCCCCCCC)C(=O)NCCOCCOCCOCCP(=O)(O)O | > 100000 nM | > 100000 nM |  |
| CCCCCCCCCCCCCCCC(=O)NC(CCCC(COC(=O)CCCCCCCCCCCCCCC)OC(=O)CCCCCCCCCCCCCCC)C(=O)N[C@@H](CO)C(=O)N[C@@H](CO)C(=O)N[C@@H](CC(N)=O)C(=O)N[C@@H](C)C(=O)N[C@@H](CO)C(=O)N[C@@H](CCCCN)C(=O)N[C@@H](CCCCN)C(=O)N[C@@H](CCCCN)C(=O)N[C@@H](CCCCN)C(=O)O (stereo partly drawn) (Palmitoyl-[X1]SSNASKKKK-OH) |  |  | Activity (TLR2/TLR6 (Homo sapiens)): 23% |
| CCCCCCCCCCCCCCCC(=O)OCCSC[C@H](NC(=O)COCC(=O)NCCCOCCOCCOCCCNC)C(=O)NCC(=O)N[C@H](CO)C(=O)COCC(=O)NCCCOCCOCCOCCCN |  |  | EC50 (Toll-like receptor 2 [1]): 674 nM; Ki (Toll-like receptor 2 [2]): 22 nM |
| CCCCCCCCCCCCCCCC(=O)N[C@H](CSC[C@@H](COC(=O)NCCCCCCCCCC)OC(=O)NCCCCCCCCCC)C(=O)NCCOCCOCCOCCP(=O)(O)O | 2640 nM | 2640 nM |  |
| CCCCCCCCCCCCCCCC(=O)OCC[C@@H](CS[C@H](N)C(=O)N[C@@H](CO)C(=O)N[C@@H](CCCCN)C(=O)N[C@@H](CCCCN)C(=O)N[C@@H](CCCCN)C(=O)N[C@@H](CCCCN)C(=O)N[C@@H](CO)C(=O)N[C@@H](CC(C)C)C(=O)N[C@@H](CC(C)C)C(=O)N[C@@H](CCSC)C(=O)N[C@@H](Cc1c[nH]c2ccccc12)C(=O)N[C@H](C(=O)N[C@H](C(=O)N[C@@H](CCC(N)=O)C(=O)N[C@H](C(=O)O)C(C)C)[C@@H](C)O)[C@@H](C)CC)OC(=O)CCCCCCCCCCCCCCC |  |  | EC50 (Toll-like receptor 2 [1]): 46200 nM |
| CCCCCCCCCCCCCCCC(=O)N[C@@H](SC[C@@H](COC(=O)CCCCCCCCCCCCCCC)OC(=O)CCCCCCCCCCCCCCC)C(=O)N[C@@H](CO)C(=O)N[C@@H](CCCCN)C(=O)N[C@@H](CCCCN)C(=O)N[C@@H](CCCCN)C(=O)N[C@@H](CCCCN)C(=O)N[C@@H](CO)C(=O)N[C@@H](CC(C)C)C(=O)N[C@@H](CC(C)C)C(=O)N[C@@H](CCSC)C(=O)N[C@@H](Cc1c[nH]c2ccccc12)C(=O)N[C@H](C(=O)N[C@H](C(=O)N[C@@H](CCC(N)=O)C(=O)N[C@H](C(=O)O)C(C)C)[C@@H](C)O)[C@@H](C)CC |  |  | EC50 (Toll-like receptor 2 [1]): 23000 nM |
| CCCCCCCCCCCCCCCC(=O)N[C@@H](CSCC(COC(=O)CCCCCCCCCCCCCCC)OC(=O)CCCCCCCCCCCCCCC)C(=O)N[C@@H](CCC(N)=O)C(=O)N1CCC[C@H]1C(=O)N[C@@H](CC(=O)O)C(=O)N[C@@H](CCCNC(=N)N)C(=O)N[C@@H](Cc1ccc(O)cc1)C(N)=O (stereo partly drawn) (Palmitoyl-C(X2)QPDRY-NH2) |  |  | Activity (Toll-like receptor 1/2 [6]): 93% |
| CNc1ccc([N+](=O)[O-])cc1-n1cnc(-c2ccc(C(F)(F)F)cc2)c1 |  |  | EC50 (Toll-like receptor 1/2 [5]): 5200 nM |
| CCCCCCCCCCCCCCCCOC[C@H](CSC[C@@H](N)C(=O)NCCOCCOCCOCCP(=O)(O)O)OCCCCCCCCCCCCCCCC | 3450 nM | 3450 nM |  |
| CCCCCCCCCCCCCCCC(=O)N[C@@H](CSCC(COC(=O)CCCCCCCCCCCCCCC)OC(=O)CCCCCCCCCCCCCCC)C(=O)N[C@@H](CCCNC(=N)N)C(=O)N1CCC[C@H]1C(=O)N[C@@H](CC(=O)O)C(=O)N[C@@H](CCCNC(=N)N)C(=O)N[C@@H](Cc1ccc(O)cc1)C(N)=O (stereo partly drawn) (Palmitoyl-C(X2)RPDRY-NH2) |  |  | Activity (Toll-like receptor 1/2 [6]): 112% |
| CCCCCCCCCCCC[C@H](CSC[C@@H](N)C(=O)NCCOCCOCCOCCP(=O)(O)O)OC(=O)NCCCCCCCCCCC | > 100000 nM | > 100000 nM |  |
| CCCCCCCCCCCCCCCC(=O)OCCCC[C@H](CS[C@H](N)C(=O)N[C@@H](CO)C(=O)N[C@@H](CCCCN)C(=O)N[C@@H](CCCCN)C(=O)N[C@@H](CCCCN)C(=O)N[C@@H](CCCCN)C(=O)N[C@@H](CO)C(=O)N[C@@H](CC(C)C)C(=O)N[C@@H](CC(C)C)C(=O)N[C@@H](CCSC)C(=O)N[C@@H](Cc1c[nH]c2ccccc12)C(=O)N[C@H](C(=O)N[C@H](C(=O)N[C@@H](CCC(N)=O)C(=O)N[C@H](C(=O)O)C(C)C)[C@@H](C)O)[C@@H](C)CC)OC(=O)CCCCCCCCCCCCCCC |  |  | EC50 (Toll-like receptor 2 [1]): 304 nM |
| CCCCCCCCCCCCCC(=O)OC[C@H](CSC[C@@H](N)C(=O)NCCOCCOCCOCCP(=O)(O)O)OC(=O)CCCCCCCCCCCCC | 6.3 nM | 6.3 nM |  |
| CCCCCCCCCCNC(=O)OC[C@H](CSC[C@@H](NC(=O)CCCCC)C(=O)NCCOCCOCCOCCP(=O)(O)O)OC(=O)NCCCCCCCCCC | 830 nM | 830 nM |  |
| CCCCCCCCCCCCCCCC(=O)OC[C@H](CS[C@H](N)C(=O)N[C@@H](CO)C(=O)N[C@@H](CCCCN)C(=O)N[C@@H](CCCCN)C(=O)N[C@@H](CCCCN)C(=O)N[C@@H](CCCCN)C(=O)N[C@@H](CO)C(=O)N[C@@H](CC(C)C)C(=O)N[C@@H](CC(C)C)C(=O)N[C@@H](CCSC)C(=O)N[C@@H](Cc1c[nH]c2ccccc12)C(=O)N[C@H](C(=O)N[C@H](C(=O)N[C@@H](CCC(N)=O)C(=O)N[C@H](C(=O)O)C(C)C)[C@@H](C)O)[C@@H](C)CC)OC(=O)CCCCCCCCCCCCCCC |  |  | EC50 (Toll-like receptor 2 [1]): 468 nM |
| CCCCCCCCCCNC(=O)OC[C@H](CSC[C@@H](N)C(=O)NCCOCCOCCOCCP(=O)(O)O)OC(=O)NCCCCCCCCCC | 820 nM | 820 nM |  |
| CCCCCCCCCCCCCCCC(=O)OCCSC[C@H](NC(=O)COCC(=O)NCCCOCCOCCOCCCNc1ccc(C2=C(/C=C/C3=[N+](CC)c4ccccc4C3(C)C)CCC/C2=C\C=C2\N(CCC)c3ccccc3C2(C)C)cc1)C(=O)NCC(=O)N[C@H](CO)C(=O)COCC(=O)NCCCOCCOCCOCCCN |  |  | IC50 (Toll-like receptor 2 [1]): 361 nM; Ki (Toll-like receptor 2 [2]): 16 nM |
| CCCCCCCC(=O)OC[C@H](CSC[C@@H](N)C(=O)NCCOCCOCCOCCP(=O)(O)O)OC(=O)CCCCCCC | 3040 nM | 3040 nM |  |
| CCCCCCCCCCCCCCCC(=O)OCCC[C@H](CS[C@H](N)C(=O)N[C@@H](CO)C(=O)N[C@@H](CCCCN)C(=O)N[C@@H](CCCCN)C(=O)N[C@@H](CCCCN)C(=O)N[C@@H](CCCCN)C(=O)N[C@@H](CO)C(=O)N[C@@H](CC(C)C)C(=O)N[C@@H](CC(C)C)C(=O)N[C@@H](CCSC)C(=O)N[C@@H](Cc1c[nH]c2ccccc12)C(=O)N[C@H](C(=O)N[C@H](C(=O)N[C@@H](CCC(N)=O)C(=O)N[C@H](C(=O)O)C(C)C)[C@@H](C)O)[C@@H](C)CC)OC(=O)CCCCCCCCCCCCCCC |  |  | EC50 (Toll-like receptor 2 [1]): 383 nM |
